Laboratory results taken from EP0349354A1, “Peptides PF10 to PF19 from a retro virus HIV, method for the synthesis of these peptides and their use, particularly in diagnostics” (INSTITUT PASTEUR, priority 1988, dated 1990).

What was measured:
[1] = tested on: anticorps anti-protéine F; assay: Western blot test on peptide spots with sera of HIV-1 infected patients; assay type: binding, humain; conditions: serum 1545 diluted 1/200; spot 10µl of peptide at 2 mg/ml
Description: Pour les besoins du test, les différents peptides PF16, PF19, PF13, PF17 utilisés sont dilués à une concentration de 2 mg/ml.
Sur une bande de papier BIORAD pour transblot, on dépose différents spots : 1µl, 2µl, 5µl, 10µl.
Après séchage on pratique un test Western Blot classique en utilisant comme anticorps des sérums de patients infectés par le virus HIV-1, positifs pour la protéine F, à des dilutions variant de 1/100 à 1/300.
Les peptides testés permettent d'aboutir aux résultats résumés dans le tableau 2 avec trois sérums différents anti-F ++ (++ signifiant une réaction plus marquée).

[2] = tested on: anticorps anti-nef; assay: ELISA for detection of anti-nef antibodies on coated peptides or nef; assay type: binding, humain

Sequence: XCYKLVPVEPDKVEEANKGENTSLLHPVSLHGMDDPEREVLEWRFDSRL AFHHVARELHPEYFKNCZ [PF17, protéine F HIV-1, séquence 141-205]
- réaction avec sérum 1545 1/200, 10µl [1]: tr
- nombre de sérums anti-nef positifs ayant réagi ([2]; ELISA, out of 31 anti-nef positive sera): 26
- intensité de l'immunoréactivité (OD), Serum 1 ([2]; Serum 1, anti-nef positive, 500 ng coated per well): +++ (pour OD = 0,8 à 2,0)
- intensité de l'immunoréactivité (OD), Serum 2 ([2]; Serum 2, anti-nef positive, 500 ng coated per well): +++ (pour OD = 0,8 à 2,0)
- intensité de l'immunoréactivité (OD), Serum 3 ([2]; Serum 3, anti-nef positive, 500 ng coated per well): + (pour OD = 0,2 à 0,4)
- intensité de l'immunoréactivité (OD), Serum 4 ([2]; Serum 4, anti-nef positive, 500 ng coated per well): +++ (pour OD = 0,8 à 2,0)
- intensité de l'immunoréactivité (OD), Serum 5 ([2]; Serum 5, anti-nef positive, 500 ng coated per well): +++ (pour OD = 0,8 à 2,0)
- intensité de l'immunoréactivité (OD), Serum 6 ([2]; Serum 6, anti-nef positive, 500 ng coated per well): +++ (pour OD = 0,8 à 2,0)
- intensité de l'immunoréactivité (OD), Serum 7 ([2]; Serum 7, anti-nef positive, 500 ng coated per well): - (pour une densité optique (OD) inférieure à 0,2)
- intensité de l'immunoréactivité (OD), Serum 8 ([2]; Serum 8, anti-nef positive, 500 ng coated per well): - (pour une densité optique (OD) inférieure à 0,2)
- intensité de l'immunoréactivité (OD), Serum 9 ([2]; Serum 9, anti-nef positive, 500 ng coated per well): - (pour une densité optique (OD) inférieure à 0,2)
- intensité de l'immunoréactivité (OD), Serum 10 ([2]; Serum 10, anti-nef positive, 500 ng coated per well): ++ (pour OD = 0,4 à 0,8)
- intensité de l'immunoréactivité (OD), Serum 11 ([2]; Serum 11, anti-nef positive, 500 ng coated per well): + (pour OD = 0,2 à 0,4)
- intensité de l'immunoréactivité (OD), Serum 12 ([2]; Serum 12, anti-nef positive, 500 ng coated per well): - (pour une densité optique (OD) inférieure à 0,2)
- intensité de l'immunoréactivité (OD), Serum 13 ([2]; Serum 13, anti-nef positive, 500 ng coated per well): ++ (pour OD = 0,4 à 0,8)
- intensité de l'immunoréactivité (OD), Serum 14 ([2]; Serum 14, anti-nef positive, 500 ng coated per well): - (pour une densité optique (OD) inférieure à 0,2)
- intensité de l'immunoréactivité (OD), Serum 15 ([2]; Serum 15, anti-nef positive, 500 ng coated per well): +++ (pour OD = 0,8 à 2,0)
- intensité de l'immunoréactivité (OD), Serum 16 ([2]; Serum 16, anti-nef positive, 500 ng coated per well): ++ (pour OD = 0,4 à 0,8)
- intensité de l'immunoréactivité (OD), Serum 17 ([2]; Serum 17, anti-nef positive, 500 ng coated per well): ++ (pour OD = 0,4 à 0,8)
- intensité de l'immunoréactivité (OD), Serum 18 ([2]; Serum 18, anti-nef positive, 500 ng coated per well): +++ (pour OD = 0,8 à 2,0)
- intensité de l'immunoréactivité (OD), Serum 19 ([2]; Serum 19, anti-nef positive, 500 ng coated per well): +++ (pour OD = 0,8 à 2,0)
- intensité de l'immunoréactivité (OD), Serum 20 ([2]; Serum 20, anti-nef positive, 500 ng coated per well): ++ (pour OD = 0,4 à 0,8)
- intensité de l'immunoréactivité (OD), Serum 21 ([2]; Serum 21, anti-nef positive, 500 ng coated per well): +++ (pour OD = 0,8 à 2,0)
- intensité de l'immunoréactivité (OD), Serum 22 ([2]; Serum 22, anti-nef positive, 500 ng coated per well): +++ (pour OD = 0,8 à 2,0)
- intensité de l'immunoréactivité (OD), Serum 23 ([2]; Serum 23, anti-nef positive, 500 ng coated per well): ++ (pour OD = 0,4 à 0,8)
- intensité de l'immunoréactivité (OD), Serum 24 ([2]; Serum 24, anti-nef positive, 500 ng coated per well): +++ (pour OD = 0,8 à 2,0)
- intensité de l'immunoréactivité (OD), Serum 25 ([2]; Serum 25, anti-nef positive, 500 ng coated per well): +++ (pour OD = 0,8 à 2,0)
- intensité de l'immunoréactivité (OD), Serum 26 ([2]; Serum 26, anti-nef positive, 500 ng coated per well): ++ (pour OD = 0,4 à 0,8)
- intensité de l'immunoréactivité (OD), Serum 27 ([2]; Serum 27, anti-nef positive, 500 ng coated per well): + (pour OD = 0,2 à 0,4)
- intensité de l'immunoréactivité (OD), Serum 28 ([2]; Serum 28, anti-nef positive, 500 ng coated per well): ++ (pour OD = 0,4 à 0,8)
- intensité de l'immunoréactivité (OD), Serum 29 ([2]; Serum 29, anti-nef positive, 500 ng coated per well): ++ (pour OD = 0,4 à 0,8)
- intensité de l'immunoréactivité (OD), Serum 30 ([2]; Serum 30, anti-nef positive, 500 ng coated per well): +++ (pour OD = 0,8 à 2,0)
- intensité de l'immunoréactivité (OD), Serum 31 ([2]; Serum 31, anti-nef positive, 500 ng coated per well): ++ (pour OD = 0,4 à 0,8)
- intensité de l'immunoréactivité (OD), Serum 32 ([2]; Serum 32, anti-nef negative control serum, 500 ng coated per well): - (pour une densité optique (OD) inférieure à 0,2)
- intensité de l'immunoréactivité (OD), Serum 33 ([2]; Serum 33, anti-nef negative control serum, 500 ng coated per well): - (pour une densité optique (OD) inférieure à 0,2)
